The subject of one test is STC-1 cell line. Type of test: cell-based, mouse. The note with it: for IC50/EC50, mSTC-1 GLP1 Secretion (assay number 13): concentration response; for mSTC-1 GLP1 Secretion IC50/EC50: assay number 13.
Test [1] has as its system ECFC/ADSC co-culture cell nuclei number.
A further test concerns HeLa cells. Kind of test: cells. Type of test: cell-based.
Test [2] relates to endothelial tube formation in co-cultures of ECFCs and ADSCs treated with VEGF. Put plainly: cells. The format is cell-based, human.
Another test deals with NCI-H716 cells. Kind of test: cells. Type of test: cell-based, Human. The conditions noted are these: for IC50/EC50, hNCI-H716 GLP1 Secretion (assay number 12): concentration response; for hNCI-H716 GLP1 Secretion IC50/EC50: assay number 12.

From PMC4503722, “Novel Phenotypic Outcomes Identified for a Public Collection of Approved Drugs from a Publicly Accessible Panel of Assays” (PLoS ONE, 2015) come the findings set out here.

`Clc1ccccc1C(c1ccccc1)(c1ccccc1)n1ccnc1` [NCGC00015251-13]: in the test with STC-1 cell line, the “IC50/EC50, mSTC-1 GLP1 Secretion (assay number 13)” value is listed as above 40 µM. In test [1], the “IC50/EC50, VEGF_ADSC\ECFC Angio Hoechst NucArea (assay number 3)” value was above 10 µM. Also, the “IC50/EC50, Hela CellCycMod PI 2N (assay number 14)” value with HeLa cells (2N) was above 10 µM. Besides, the “IC50/EC50, Hela CellCycMod PI 4N (assay number 16)” value with HeLa cells (4N) was above 10 µM. For the same molecule, the “IC50/EC50, Hela CellCycMod PI Cell Number (assay number 18)” value with HeLa cells (Cell Number) was above 10 µM. For the same molecule, in the test with HeLa cells (MI), the “IC50/EC50, Hela CellCycMod PI MI (assay number 17)” value is listed as above 10 µM. In addition, the “IC50/EC50, Hela CellCycMod PI S Phase (assay number 15)” value with HeLa cells (S Phase) was above 10 µM. Further, the “IC50/EC50, VEGF_ADSC\ECFC Angio CD31 TubeArea (assay number 2)” value in test [2] is 3.0384 µM. The “IC50/EC50, hNCI-H716 GLP1 Secretion (assay number 12)” value in the test on NCI-H716 cells was 20.2249 µM.
For `CCCCCCCCCCCCCCCC[N+](C)(C)CCN(Cc1ccc(OC)cc1)c1ncccn1.[Br-]` [NCGC00016507-05], the “mSTC-1 GLP1 Secretion IC50/EC50” value with STC-1 cell line is listed as above 40 µM. The “VEGF_ADSC\ECFC Angio Hoechst NucArea IC50/EC50” value in test [1] was above 10 µM. Moreover, the “Hela CellCycMod PI 2N IC50/EC50” value with HeLa cells (assay number 14, 2N) is given as above 10 µM. The “Hela CellCycMod PI 4N IC50/EC50” value in the test with HeLa cells (assay number 16, 4N) is reported as above 10 µM. Moreover, in the test with HeLa cells (assay number 17, MI), the “Hela CellCycMod PI MI IC50/EC50” value was above 10 µM. The “Hela CellCycMod PI Cell Number IC50/EC50” value in the test with HeLa cells (assay number 18, cell number) was 0.3488 µM. In test [2], the “VEGF_ADSC\ECFC Angio CD31 TubeArea IC50/EC50” value is listed as 3.0741 µM. Moreover, the “hNCI-H716 GLP1 Secretion IC50/EC50” value in the test on NCI-H716 cells was 17.7844 µM.
On to `Cc1cc(C(C)(C)CC(C)(C)C)ccc1OCCOCC[N+](C)(C)Cc1ccccc1` [NCGC00016789-06], for which the “mSTC-1 GLP1 Secretion IC50/EC50” value in the test on STC-1 cell line is listed as above 40 µM. In addition, in test [1], the “VEGF_ADSC\ECFC Angio Hoechst NucArea IC50/EC50” value was 8.703 µM. In addition, the “VEGF_ADSC\ECFC Angio CD31 TubeArea IC50/EC50” value in test [2] is above 10 µM. Besides, the “hNCI-H716 GLP1 Secretion IC50/EC50” value in the test on NCI-H716 cells came out at 12.042 µM.
On to `COc1cc2nc(N3CCN(C(=O)C4COc5ccccc5O4)CC3)nc(N)c2cc1OC.CS(=O)(=O)O` (centres unmarked) [NCGC00018158-09], for which, in the test on STC-1 cell line, the “mSTC-1 GLP1 Secretion IC50/EC50” value is listed as 10.6547 µM. Also, the “VEGF_ADSC\ECFC Angio Hoechst NucArea IC50/EC50” value in test [1] was above 10 µM. Moreover, the “VEGF_ADSC\ECFC Angio CD31 TubeArea IC50/EC50” value in test [2] is on record as above 10 µM. Further, the “hNCI-H716 GLP1 Secretion IC50/EC50” value in the test on NCI-H716 cells was above 40 µM.
On to `Clc1ccc(CSC(Cn2ccnc2)c2ccc(Cl)cc2Cl)cc1.O=[N+]([O-])O` (centres unmarked) [NCGC00018250-06], for which the “mSTC-1 GLP1 Secretion IC50/EC50” value in the test on STC-1 cell line is on record as above 40 µM. For the same molecule, the “VEGF_ADSC\ECFC Angio Hoechst NucArea IC50/EC50” value in test [1] is on record as 8.757 µM. Further, the “VEGF_ADSC\ECFC Angio CD31 TubeArea IC50/EC50” value in test [2] amounted to 2.1282 µM. For the same molecule, the “hNCI-H716 GLP1 Secretion IC50/EC50” value with NCI-H716 cells turned out to be 20.9915 µM.
On the same counts, the results for `[O-][S+](c1cc(Cl)cc(Cl)c1O)c1cc(Cl)cc(Cl)c1O` [NCGC00160554-02] are above 40 µM, above 10 µM, above 10 µM and 19.7164 µM.
On the same counts, the results for `CC(C)(C)CC(C)(C)c1ccc(O)cc1` [NCGC00164127-07] are 8.3699 µM, 9.1112 µM, above 10 µM and 25.8625 µM.
The corresponding values for `CCCCCCCC/C=C\CCCCCCCCN` [NCGC00164329-03] are above 40 µM, 9.128 µM, above 10 µM and 14.7555 µM.
Turning to `Cc1c(C)n(CCN(C)C)c2ccc(C(=O)OCCN(C)C)cc12` [NCGC00164483-03], the “mSTC-1 GLP1 Secretion IC50/EC50” value in the test on STC-1 cell line is listed as 1.1962 µM. Also, the “hNCI-H716 GLP1 Secretion IC50/EC50” value in the test on NCI-H716 cells is recorded as above 40 µM.
On to `CC(O)C(=O)O.CCCCCCCCCCCCCCNCCO` [NCGC00164503-02], for which the “mSTC-1 GLP1 Secretion IC50/EC50” value with STC-1 cell line is listed as above 20 µM. Besides, the “VEGF_ADSC\ECFC Angio Hoechst NucArea IC50/EC50” value in test [1] came to 9.1871 µM. Besides, the “VEGF_ADSC\ECFC Angio CD31 TubeArea IC50/EC50” value in test [2] is reported as above 10 µM. Further, in the test on NCI-H716 cells, the “hNCI-H716 GLP1 Secretion IC50/EC50” value turned out to be 13.5546 µM.
For the molecule `CC(C)(O)c1ccccc1CC[C@@H](SCC1(CC(=O)[O-])CC1)c1cccc(/C=C/c2ccc3ccc(Cl)cc3n2)c1.[Na+]` [NCGC00164568-04], the “mSTC-1 GLP1 Secretion IC50/EC50” value in the test with STC-1 cell line was above 40 µM. Also, in the test on NCI-H716 cells, the “hNCI-H716 GLP1 Secretion IC50/EC50” value is reported as 20.7101 µM.
Take `CCOC(=O)[C@@H](N)CS.Cl` [NCGC00166061-02]: the “IC50/EC50, mSTC-1 GLP1 Secretion (assay number 13)” value in the test with STC-1 cell line is on record as 14.3442 µM. The “IC50/EC50, hNCI-H716 GLP1 Secretion (assay number 12)” value with NCI-H716 cells was above 40 µM.
`O=C1OC2(c3ccccc31)c1cc(I)c(O)c(I)c1Oc1c2cc(I)c(O)c1I` [NCGC00166249-03]: the “mSTC-1 GLP1 Secretion IC50/EC50” value in the test with STC-1 cell line is on record as 2.9301 µM. Moreover, the “hNCI-H716 GLP1 Secretion IC50/EC50” value in the test with NCI-H716 cells is on record as above 40 µM.
On the same counts, the results for `CCCCCCCCCCCCOCCOCCOCCOCCOCCOCCOCCOCCOCCO` [NCGC00166290-03] are 30.3683 µM and above 40 µM.
`CC1=C(C(=O)OC(C)C)C(c2cccc([N+](=O)[O-])c2)C(C(=O)OC2CN(C(c3ccccc3)c3ccccc3)C2)=C(N)N1` (centres unmarked) [NCGC00167436-02]: the “mSTC-1 GLP1 Secretion IC50/EC50” value in the test with STC-1 cell line was 1.234 µM. In test [1], the “VEGF_ADSC\ECFC Angio Hoechst NucArea IC50/EC50” value is on record as 7.394 µM. In addition, the “VEGF_ADSC\ECFC Angio CD31 TubeArea IC50/EC50” value in test [2] stood at 3.5833 µM. Further, in the test with NCI-H716 cells, the “hNCI-H716 GLP1 Secretion IC50/EC50” value turned out to be 12.7519 µM.
On the same counts, the results for `Clc1ccc(CO/N=C(\Cn2ccnc2)c2ccc(Cl)cc2Cl)c(Cl)c1.O=[N+]([O-])O` [NCGC00177980-03] are above 40 µM, 8.846 µM, above 10 µM and above 40 µM.
`CCN(CC)CCOC(=O)C(Cc1cccc2ccccc12)CC1CCCO1` (centres unmarked) [NCGC00178213-05]: the “mSTC-1 GLP1 Secretion IC50/EC50” value with STC-1 cell line is listed as above 40 µM. Moreover, the “hNCI-H716 GLP1 Secretion IC50/EC50” value with NCI-H716 cells is listed as above 40 µM.
